{"source": "ChEMBL document CHEMBL3886713", "about": "“Aromatic heterocyclic derivative having TRPV4-inhibiting activity” (2016)"}
{"molecular_target": "Transient receptor potential cation channel subfamily V member 4 (Homo sapiens, UniProt Q9HBA0)", "sequence (Q9HBA0 whole entry)": "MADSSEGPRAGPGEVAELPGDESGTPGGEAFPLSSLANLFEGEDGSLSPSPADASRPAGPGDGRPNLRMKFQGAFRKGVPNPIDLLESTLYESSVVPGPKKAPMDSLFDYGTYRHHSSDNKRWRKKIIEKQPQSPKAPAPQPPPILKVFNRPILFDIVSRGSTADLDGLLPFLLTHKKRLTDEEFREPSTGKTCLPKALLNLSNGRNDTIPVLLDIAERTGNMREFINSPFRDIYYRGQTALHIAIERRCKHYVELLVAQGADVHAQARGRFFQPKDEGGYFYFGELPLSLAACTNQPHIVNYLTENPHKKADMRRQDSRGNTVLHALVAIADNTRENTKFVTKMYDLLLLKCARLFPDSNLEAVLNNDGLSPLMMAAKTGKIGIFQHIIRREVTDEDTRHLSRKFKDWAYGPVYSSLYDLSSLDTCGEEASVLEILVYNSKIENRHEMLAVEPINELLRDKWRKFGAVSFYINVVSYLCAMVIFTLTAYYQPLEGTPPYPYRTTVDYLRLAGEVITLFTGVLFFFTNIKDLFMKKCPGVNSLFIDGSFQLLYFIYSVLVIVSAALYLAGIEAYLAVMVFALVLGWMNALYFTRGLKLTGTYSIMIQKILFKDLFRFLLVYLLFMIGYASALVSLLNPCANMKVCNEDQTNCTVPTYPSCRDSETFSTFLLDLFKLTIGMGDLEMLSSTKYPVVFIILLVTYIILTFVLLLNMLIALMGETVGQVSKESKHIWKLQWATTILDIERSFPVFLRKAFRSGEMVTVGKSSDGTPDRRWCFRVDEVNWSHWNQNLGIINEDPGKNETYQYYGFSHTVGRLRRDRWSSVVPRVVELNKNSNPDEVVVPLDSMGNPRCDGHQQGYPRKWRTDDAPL", "experiment": "Inhibition Assay: Test Example 1: (1) The TRPV4 inhibitory activity was measured using CHO-K1 cells stably expressing human TRPV4 (hTRPV4/CHO cells). (2) In the day before the experimental day, frozen cell were thawed and washed with the culture medium (MEM-α, 10% FBS, 2 mmol/L GlutaMax, 50 unit Penicillin, 50 μg/mL Streptomycin). Then cells were suspended in the culture medium. (3) The 384-well plates which hTRPV4/CHO cells were seeded at densities of 4000 cells/well in the culture medium and cultured in a CO2 incubator in the presence of 5% CO2 at 37° C. for overnight was used as assay plates. (4) The assay plate was washed with assay buffer (Hanks, 20 mmol/L HEPES, 2.5 mmol/L probenecid, pH7.4), and the buffer were remained at 20 μL/well. (5) 10 μl of dye loading buffer (9 μmol/L Fluo 4-AM, 0.09% Pluronic F-127/assay buffer) was added to each well, then the assay plate was incubated in a CO2 incubator in the presence of 5% CO2 at 37° C. for one hour. (final 3 μmol/L Fluo4-AM). (6) The assay plate was washed with the assay buffer, and the buffers were remained at 20 μL/well. Then the assay plate was incubated for 10 min at room temperature. (7) Diluted compound solution was dispensed to each well in the compound plate, and mixed with built-in Pipette and Mixer of the Fluorescence analysis system FLIPR TETRA (Molecular devices). (8) After incubation for 5 min, 20 μL of 4α-PDD solution were applied to each well of assay plate and mixed with the FLIPR TETRA. (final 1 Î¼mol/L 4α-PDD). (9) The fluorescent intensity was measured with FLIPR TETRA system for 10 min from the point of time addition the compound solution, at Ex 470-495 nm, Em 515-575 nm wavelength.", "assay_type": "cell-based", "units": {"IC50": "nM", "Ki": "nM"}}
{"smiles": "Cc1c(C(=O)Nc2cccc(C(F)(F)F)c2)nc(-c2ccccc2)n1CCCN1CCOCC1", "IC50": 710, "Ki": 320}
{"smiles": "CNCCCn1c(C(C)(C)C)cc(S(=O)(=O)NCc2cccc(C(F)(F)F)c2)c1C", "IC50": 7000, "Ki": 2400}
{"smiles": "Cc1c(S(=O)(=O)NCc2cccc(C(F)(F)F)c2)cc(C(C)(C)C)n1CCCN1CCNCC1", "IC50": 8900, "Ki": 3100}
